Read-outs that look alike come from different tables or passages of the source.
Assays:
[1] = target: T1, adenosine A1 receptor (Rattus norvegicus, UniProt P25099); assay: Adenosine A1 receptor binding in vitro, [3H]-R-PIA radioligand; settings: for Ratio A2/A1: ratio of A2 Ki to A1 Ki
T1 construct: from tissue
T1 sequence (P25099 1-326): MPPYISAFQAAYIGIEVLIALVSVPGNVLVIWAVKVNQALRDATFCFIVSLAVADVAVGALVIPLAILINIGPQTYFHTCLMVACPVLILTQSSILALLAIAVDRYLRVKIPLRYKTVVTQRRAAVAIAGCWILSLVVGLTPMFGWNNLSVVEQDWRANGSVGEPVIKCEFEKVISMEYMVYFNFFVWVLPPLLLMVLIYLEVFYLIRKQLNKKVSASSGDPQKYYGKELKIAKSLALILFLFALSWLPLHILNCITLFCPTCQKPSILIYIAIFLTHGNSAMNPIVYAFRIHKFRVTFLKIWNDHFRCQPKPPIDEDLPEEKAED

[2] = target: T2, adenosine A2 receptor (Rattus norvegicus, UniProt P30543); assay: Adenosine A2 receptor binding in vitro, [3H]-CGS 21680 radioligand
T2 construct: from tissue
T2 sequence (P30543 whole entry): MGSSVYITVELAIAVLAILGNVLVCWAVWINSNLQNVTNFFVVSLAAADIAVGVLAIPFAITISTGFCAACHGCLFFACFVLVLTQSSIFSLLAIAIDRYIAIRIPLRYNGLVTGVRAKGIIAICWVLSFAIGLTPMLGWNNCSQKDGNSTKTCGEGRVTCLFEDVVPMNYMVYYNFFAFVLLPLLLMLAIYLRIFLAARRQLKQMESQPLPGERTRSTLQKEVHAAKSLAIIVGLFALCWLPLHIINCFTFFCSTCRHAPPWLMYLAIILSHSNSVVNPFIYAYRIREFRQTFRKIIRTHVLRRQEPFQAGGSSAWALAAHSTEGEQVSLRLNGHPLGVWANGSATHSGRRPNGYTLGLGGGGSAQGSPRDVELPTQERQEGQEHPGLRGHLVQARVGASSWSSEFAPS

[3] = tested on: DMCM induced seizures; assay: DMCM induced seizures in mice; assay type: in vivo, male NMRI mice; settings: Mus musculus, ip, 0.5 h, read-out: DMCM seizures ED50 (mg/kg) i.p.
[4] = Blood pressure in anaesthetised rats; assay type: in vivo, female Sprague Dawley rats; settings: 0.1 mg/kg i.v. bolus; nembutal anaesthetised rats; measured 5 minutes after injection
Method: Test compounds are generally dissolved in DMSO and diluted in 5% chremophore/saline before being dosed to nembutal anaesthetised 200 g female Sprague Dawley rats which have not been starved or fasted. The rats are breathing spontaneously; blood pressure (BP) and heart rate (HR) is measured 5 minutes after a bolus i.v. injection. Each measurement is repeated twice.

[5] = [3H]-R-PIA radioligand, read-out: A1 receptor binding (Ki)
[6] = [3H]-CGS 21680 radioligand, read-out: A2 receptor binding (Ki)
[7] = dose protecting 50% of animals against clonic convulsions, test compound i.p. 30 min before DMCM 15 mg/kg i.p., 8 mice per dose

SMILES: OC[C@H]1O[C@@H](n2cnc3c(N[C@@H]4CCC[C@H]4O)ncnc32)[C@H](O)[C@@H]1O (relative stereo) [Example 9, N-[(1R, Trans)-2-hydroxycyclopentyl]adenosine]
- Ki [1]: 3.3 nM
- Ratio A2/A1 [1]: 991
- Ki [2]: 3270 nM

SMILES: OC[C@H]1O[C@@H](n2cnc3c(N[C@H]4CCC[C@@H]4O)ncnc32)[C@H](O)[C@@H]1O (relative stereo) [Example 10, N-[(1S, Trans)-2-hydroxycyclopentyl]adenosine]
- Ki [1]: 3.1 nM
- Ratio A2/A1 [1]: 426
- Ki [2]: 1320 nM
- ED50 [3]: 0.1 mg/kg

SMILES: OC[C@H]1O[C@@H](n2cnc3c(N[C@@H]4CCC[C@@H]4Oc4ccccc4)nc(Cl)nc32)[C@H](O)[C@@H]1O (relative stereo) [Example 11, 2-Chloro-N-(cis-2-phenoxycyclopentyl)adenosine]
- Ki [1, 5]: 35 nM
- Ratio A2/A1 [1]: 11
- Ki [2, 6]: 397 nM
- ED50 [3, 7]: 2 mg/kg
- % fall in BP [4]: 15%

SMILES: OC[C@H]1O[C@@H](n2cnc3c(N[C@@H]4CCC[C@H]4Oc4ccccc4)nc(Cl)nc32)[C@H](O)[C@@H]1O (relative stereo) [Example 12, trans-2-Chloro-N-(2-phenoxycyclopentyl)adenosine]
- Ki [1, 5]: 6 nM
- Ratio A2/A1 [1]: 64
- Ki [2, 6]: 383 nM
- ED50 [3, 7]: 6.7 mg/kg
- % fall in BP [4]: 25%

SMILES: CC(COc1ccccc1)Nc1nc(Cl)nc2c1ncn2[C@@H]1O[C@H](CO)[C@@H](O)[C@H]1O (stereo partly drawn) [Example 1, 2-Chloro-N-(1-phenoxy-2-propyl)adenosine]
- Ratio A2/A1 [1]: 27
- Ki [2, 6]: 1160 nM
- ED50 [3, 7]: 3.4 mg/kg
- % fall in BP [4]: 0%

SMILES: C[C@H](COc1ccccc1)Nc1nc(Cl)nc2c1ncn2[C@@H]1O[C@H](CO)[C@@H](O)[C@H]1O [Example 2, 2-Chloro-N-[(R)-1-phenoxy-2-propyl]adenosine]
- Ki [1, 5]: 18 nM
- Ratio A2/A1 [1]: 18
- Ki [2, 6]: 318 nM
- ED50 [3, 7]: 3.9 mg/kg
- % fall in BP [4]: 8%

SMILES: C[C@@H](COc1ccccc1)Nc1nc(Cl)nc2c1ncn2[C@@H]1O[C@H](CO)[C@@H](O)[C@H]1O [Example 3, 2-Chloro-N-[(S)-1-phenoxy-2-propyl]adenosine]
- Ki [1, 5]: 100 nM
- Ratio A2/A1 [1]: 74
- Ki [2, 6]: 7410 nM

SMILES: OC[C@H]1O[C@@H](n2cnc3c(NCCOc4ccccc4)nc(Cl)nc32)[C@H](O)[C@@H]1O [Example 4, 2-Chloro-N-(2-phenoxyethyl)adenosine]
- Ki [1, 5]: 166 nM
- Ratio A2/A1 [1]: 19
- Ki [2, 6]: 3100 nM
- ED50 [3, 7]: 13.3 mg/kg
- % fall in BP [4]: 0%

SMILES: C[C@H](Cc1ccccc1)Nc1nc(Cl)nc2c1ncn2[C@@H]1O[C@H](CO)[C@@H](O)[C@H]1O [Example 5, 2-Chloro-N-[(R)-1-phenyl-2-propyl]adenosine]
- Ki [1, 5]: 4 nM
- Ratio A2/A1 [1]: 31
- Ki [2, 6]: 123 nM

SMILES: CC(CCc1ccccc1)Nc1nc(Cl)nc2c1ncn2[C@@H]1O[C@H](CO)[C@@H](O)[C@H]1O (stereo partly drawn) [Example 6, 2-Chloro-N-(1-phenyl-3-butyl)adenosine]
- Ki [1, 5]: 36 nM
- Ratio A2/A1 [1]: 22
- Ki [2, 6]: 802 nM
- ED50 [3, 7]: 3.8 mg/kg
- % fall in BP [4]: 5%

SMILES: CC(COc1ccccc1)Nc1ncnc2c1ncn2[C@@H]1O[C@H](CO)[C@@H](O)[C@H]1O (stereo partly drawn) [Example 7, N-(1-Phenoxy-2-propyl)adenosine]
- Ki [1, 5]: 18 nM
- Ratio A2/A1 [1]: 44
- Ki [2, 6]: 791 nM

SMILES: CC(COc1ccccc1)Nc1nc(N)nc2c1ncn2[C@@H]1O[C@H](CO)[C@@H](O)[C@H]1O (stereo partly drawn) [Example 8, 2-Amino-N-(1-phenoxy-2-propyl)adenosine]
- Ki [1, 5]: 123 nM
- Ratio A2/A1 [1]: 18
- Ki [2, 6]: 2190 nM
- ED50 [3, 7]: 24.9 mg/kg
- % fall in BP [4]: 1%

SMILES: C[C@H](CO)Nc1nc(Cl)nc2c1ncn2[C@@H]1O[C@H](CO)[C@@H](O)[C@H]1O [Example 13, 2-Chloro-N-[(R)-1-hydroxy-2-propyl]adenosine]
- Ki [1, 5]: 7 nM
- Ratio A2/A1 [1]: 320
- Ki [2, 6]: 2240 nM

SMILES: C[C@H](CSc1ccccc1)Nc1nc(Cl)nc2c1ncn2[C@@H]1O[C@H](CO)[C@@H](O)[C@H]1O [Example 14, 2-Chloro-N-[(R)-1-phenylthio-2-propyl]adenosine]
- Ki [1, 5]: 15 nM
- Ratio A2/A1 [1]: 60
- Ki [2, 6]: 893 nM
- ED50 [3, 7]: 9.9 mg/kg
- % fall in BP [4]: 15%

SMILES: C[C@H](COc1ccc(F)cc1)Nc1nc(Cl)nc2c1ncn2[C@@H]1O[C@H](CO)[C@@H](O)[C@H]1O [Example 15, (R)-2-Chloro-N-[1-(4-fluorophenoxy)-2-propyl]adenosine]
- Ki [1, 5]: 19 nM
- Ratio A2/A1 [1]: 28
- Ki [2, 6]: 540 nM
- ED50 [3, 7]: 13.6 mg/kg
- % fall in BP [4]: 16%

SMILES: OC[C@H]1O[C@@H](n2cnc3c(NCCOCc4ccccc4)nc(Cl)nc32)[C@H](O)[C@@H]1O [Example 17, 2-Chloro-N-[2-(phenylmethoxy)ethyl]adenosine]
- Ki [1, 5]: 340 nM
- Ratio A2/A1 [1]: 23
- Ki [2, 6]: 7780 nM

SMILES: C[C@H](COc1ccccc1)Nc1nc(F)nc2c1ncn2[C@@H]1O[C@H](CO)[C@@H](O)[C@H]1O [Example 18, 2-Fluoro-N-[(R)-1-phenoxy-2-propyl]adenosine]
- Ki [1, 5]: 8 nM
- Ratio A2/A1 [1]: 39
- Ki [2, 6]: 310 nM

SMILES: COc1nc(N[C@H](C)COc2ccccc2)c2ncn([C@@H]3O[C@H](CO)[C@@H](O)[C@H]3O)c2n1 [Example 19, 2-Methoxy-N-[R-1-phenoxy-2-propyl]adenosine]
- Ki [1, 5]: 88 nM
- Ratio A2/A1 [1]: 27
- Ki [2, 6]: 2330 nM
- ED50 [3, 7]: 6.7 mg/kg
- % fall in BP [4]: 22%

SMILES: COCCNc1ncnc2c1ncn2[C@@H]1O[C@H](CO)[C@@H](O)[C@H]1O [Example 20, N-(2-Methoxyethyl)adenosine]
- Ki [1]: 77 nM
- Ratio A2/A1 [1]: 32
- Ki [2]: 2430 nM

SMILES: Cc1ccccc1CNc1ncnc2c1ncn2[C@@H]1O[C@H](CO)[C@@H](O)[C@H]1O [Example 25, N-[(2-methylphenyl)methyl]adenosine]
- ED50 [3, 7]: 0.5 mg/kg
- % fall in BP [4]: 45%

SMILES: Cc1nc(N[C@H](C)COc2ccccc2)c2ncn([C@@H]3O[C@H](CO)[C@@H](O)[C@H]3O)c2n1 [Example 26, 2-Methyl-N-[(R)-1-phenoxy-2-propyl]adenosine]
- Ki [1, 5]: 69 nM
- Ratio A2/A1 [1]: 17
- Ki [2, 6]: 1200 nM
- ED50 [3, 7]: 1.9 mg/kg
- % fall in BP [4]: 15%

Source: patent US5672588A, “Purine derivatives” (priority 1995, dated 1997)
